The source of these data is ChEMBL document CHEMBL5620356, “Sulfur-fluoride exchange (SuFEx)-enabled lead discovery of AChE inhibitors by fragment linking strategies” (Eur J Med Chem, 2023).

The structures appear in SMILES notation. Activity calls are given as the source filed them. No cut-off for these calls is given here.

Series [1] can be described thus: Permeability of the compound in PBS at pH 7.4 by incubated for 18 hrs by […] assay based UV- spectroscopy. Conditions: read-out: permeability. The class given is ADME. (In general: PAMPA measures passive passage across an artificial lipid membrane.)
In series [2] the target is T1, Acetylcholinesterase (Electrophorus electricus, UniProt O42275). Kind of series: Inhibition of electric eel AChE using acetylthiocholine iodide as substrate preincubated for 20 mins followed by substrate addition and measured after 20 mins by DTNB reagent based Ellman's method. For orientation: DTNB colorimetry detects thiols as they appear.
T1 sequence (O42275 whole entry): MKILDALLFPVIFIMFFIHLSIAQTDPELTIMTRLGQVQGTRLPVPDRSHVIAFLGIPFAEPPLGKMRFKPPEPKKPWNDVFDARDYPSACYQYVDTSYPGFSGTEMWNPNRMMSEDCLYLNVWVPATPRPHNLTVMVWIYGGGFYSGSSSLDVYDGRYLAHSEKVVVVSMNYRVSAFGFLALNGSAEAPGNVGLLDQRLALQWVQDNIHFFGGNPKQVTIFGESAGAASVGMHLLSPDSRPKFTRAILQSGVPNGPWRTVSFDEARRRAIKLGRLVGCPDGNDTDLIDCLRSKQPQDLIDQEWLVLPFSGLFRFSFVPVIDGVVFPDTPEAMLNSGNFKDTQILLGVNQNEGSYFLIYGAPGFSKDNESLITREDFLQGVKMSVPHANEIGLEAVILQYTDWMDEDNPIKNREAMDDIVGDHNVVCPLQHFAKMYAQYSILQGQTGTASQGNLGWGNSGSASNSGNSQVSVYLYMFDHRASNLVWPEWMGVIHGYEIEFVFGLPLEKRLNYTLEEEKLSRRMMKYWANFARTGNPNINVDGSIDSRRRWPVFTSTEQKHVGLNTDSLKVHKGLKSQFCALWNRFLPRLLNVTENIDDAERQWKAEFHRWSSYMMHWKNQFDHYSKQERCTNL
The target in series [3] is T1, Acetylcholinesterase. Kind of series: Inhibition of electric eel AChE incubated overnight by two fold serial dilution method.
Series [4] concerns the target T1, Acetylcholinesterase. Kind of series: Inhibition of electric eel AChE assessed as inhibition constant using acetylthiocholine iodide as substrate by Lineweaver-Burk plot analysis.
The test system of series [5] is PC-12. Kind of series: Neuroprotective activity against H2O2-induced injury in rat PC12 cells assessed as increase in cell viability at 25 uM preincubated for 3 hrs followed by H2O2 addition and measured after 24 hrs by MTT assay relative to control. The class given is functional. Conditions: time 27 hrs. (Formazan colour is commonly taken as a measure of viable cells.)

The test system of series [6] is Mus musculus. Put plainly: Neuroprotective activity against amyloid beta 1-42 peptide induced ICR mouse assessed as reduction in latency at 5 mg/kg,po administration. Format: functional, organism-based.
For series [7], the system named is Mus musculus. Kind of series: Neuroprotective activity against amyloid beta 1-42 peptide induced ICR mouse assessed as increase in number of neurons in hippocampus at 5 mg/kg,po administration by hematoxylin-eosin staining based microscopic analysis. The class given is functional, organism-based.
Series [8] has as its system Mus musculus. Kind of series: Neuroprotective activity against amyloid beta 1-42 peptide induced ICR mouse assessed as decrease in cognitive function impairment at 5 mg/kg,po administration. Format: functional, organism-based.
Series [9] addresses Cholinesterase (Equus caballus, UniProt P81908). Kind of series: Inhibition of equine serum BuChE using butyrylthiocholine iodide as substrate preincubated for 20 mins followed by substrate addition and measured after 20 mins by DTNB reagent based Ellman's method. Format: cell-free.
The target in series [10] is Acetylcholinesterase (Electrophorus electricus) (UniProt O42275). Kind of series: Inhibition of electric eel AChE using acetylthiocholine iodide as substrate at 20 uM preincubated for 20 mins followed by substrate addition and measured after 20 mins by DTNB reagent based Ellman's method. Conditions: time 40.0 min.
Chain of Acetylcholinesterase (Electrophorus electricus) (O42275 24-633 limits assumed): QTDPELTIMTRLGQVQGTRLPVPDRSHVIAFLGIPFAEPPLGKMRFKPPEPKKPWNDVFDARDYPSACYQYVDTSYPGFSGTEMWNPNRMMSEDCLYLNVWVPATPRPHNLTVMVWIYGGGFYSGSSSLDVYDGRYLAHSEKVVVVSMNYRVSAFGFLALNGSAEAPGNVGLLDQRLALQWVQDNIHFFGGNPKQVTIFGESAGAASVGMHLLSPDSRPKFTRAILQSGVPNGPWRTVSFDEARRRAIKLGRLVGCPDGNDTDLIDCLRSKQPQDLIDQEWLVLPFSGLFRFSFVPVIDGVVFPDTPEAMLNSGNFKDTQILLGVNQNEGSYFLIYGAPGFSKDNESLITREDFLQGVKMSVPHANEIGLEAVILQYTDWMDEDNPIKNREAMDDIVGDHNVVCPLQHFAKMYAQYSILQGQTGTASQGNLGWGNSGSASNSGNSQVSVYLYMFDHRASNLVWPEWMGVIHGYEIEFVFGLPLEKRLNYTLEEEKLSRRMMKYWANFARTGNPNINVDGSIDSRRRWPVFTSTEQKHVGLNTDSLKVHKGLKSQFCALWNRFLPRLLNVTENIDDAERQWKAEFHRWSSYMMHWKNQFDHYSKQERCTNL
Series [11] has as its target Cholinesterase (Equus caballus) (UniProt P81908). Put plainly: Inhibition of equine serum BuChE using butyrylthiocholine iodide as substrate at 20 uM preincubated for 20 mins followed by substrate addition and measured after 20 mins by DTNB reagent based Ellman's method. Format: cell-free. Conditions: time 40.0 min.

Chain of Cholinesterase (P81908 whole entry): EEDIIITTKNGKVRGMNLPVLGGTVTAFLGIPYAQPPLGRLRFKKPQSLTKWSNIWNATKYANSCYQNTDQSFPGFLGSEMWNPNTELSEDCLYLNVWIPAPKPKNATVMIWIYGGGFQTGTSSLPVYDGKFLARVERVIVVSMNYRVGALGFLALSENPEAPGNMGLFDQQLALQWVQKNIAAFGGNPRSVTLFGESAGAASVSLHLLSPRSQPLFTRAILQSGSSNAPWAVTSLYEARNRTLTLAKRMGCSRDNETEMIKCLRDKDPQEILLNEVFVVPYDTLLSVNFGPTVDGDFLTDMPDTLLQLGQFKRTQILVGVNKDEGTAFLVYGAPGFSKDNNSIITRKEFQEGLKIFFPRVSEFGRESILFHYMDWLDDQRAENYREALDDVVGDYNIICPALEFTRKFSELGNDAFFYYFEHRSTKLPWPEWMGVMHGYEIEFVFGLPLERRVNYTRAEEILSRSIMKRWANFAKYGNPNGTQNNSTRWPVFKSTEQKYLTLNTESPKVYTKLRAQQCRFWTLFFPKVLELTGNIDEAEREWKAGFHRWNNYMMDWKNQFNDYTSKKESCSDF
Chain of Cholinesterase (Equus caballus) (P81908 whole entry): as above

On to `CC(=O)[C@H]1CC[C@H]2[C@@H]3CCC4=CC(=O)CC[C@]4(C)[C@H]3CC[C@]12C` [PROGESTERONE], for which, in series [1], the Papp at 18 h is 16.4 ×10⁻⁶ cm/s.
By IC50 is commonly meant the concentration that gives 50% inhibition. Low values mean greater potency, high ones weaker potency. As for `CCCNS(=O)(=O)[C@@H]1C[C@@H]2[C@H]1C=C(F)C(=O)N2C`, the IC50 was 6.78 µM in series [2] and 5.59 µM in [3].
The matching figures for `CN1C(=O)C(F)=C[C@@H]2[C@H]1C[C@H]2S(=O)(=O)NCCc1ccccc1F`: 10.8 µM and 12.5 µM.
Broadly, the Ki is a measure of affinity in units of concentration, obtained from inhibition or displacement. Turning to `O=C1N[C@@H]2C[C@@H](S(=O)(=O)NCCC3CCN(Cc4ccccc4)CC3)[C@@H]2c2c(Cl)cccc21`, the IC50 in [2] is 0.094 µM; in series [3] it was 0.099 µM. Also, the Ki in [4] is 0.128 µM. In addition, the Activity in series [5] turned out to be 77.2%. Moreover, the Papp at 18 h in [1] amounted to 13.1 ×10⁻⁶ cm/s. In addition, the result in series [6], in series [7] and in series [8] was Active.
With `Cc1ccc2c(c1)[C@H]1[C@H](S(=O)(=O)F)C[C@H]1NC2=O`, half-maximal inhibition in series [9] (IC50) was put at 5.03 µM.
The same measure, in the same setting: as for `CN1C(=O)C(F)=C[C@@H]2[C@H]1C[C@@]2(Br)S(=O)(=O)F`, the figure is 14 µM.
`CN1C(=O)C(F)=C[C@@H]2[C@H]1C[C@H]2S(=O)(=O)NCCc1ccc(F)cc1`: the concentration for half-maximal inhibition (IC50) was determined as 4.56 µM in series [2] and 3.37 µM in series [3].
For the compound `CN1C(=O)C(F)=C[C@@H]2[C@H]1C[C@H]2S(=O)(=O)NCCC1CCN(Cc2ccccc2)CC1`, the IC50 in [2] was determined as 0.38 µM; in series [3] it was 0.34 µM. Besides, the Papp at 18 h in [1] is 12.3 ×10⁻⁶ cm/s.
In the case of `O=C1N[C@@H]2C[C@@H](S(=O)(=O)F)[C@@H]2c2c(Cl)cccc21`, the values for the IC50 in series [2] and in series [9] were 6.82 µM and 7.98 µM, respectively. In addition, the inhibition result in series [10] and in series [11] was “Active” each time.
Compound `CN1C(=O)c2ccccc2[C@@H]2[C@H]1C[C@H]2S(=O)(=O)F` gave an IC50 in series [9] of 12 µM.
`O=C1N[C@@H]2C[C@@H](S(=O)(=O)F)[C@@H]2c2c(Br)cccc21` yielded an IC50 in [9] of 3.3 µM. Further, the inhibition result in series [10] and in [11] was “Active” throughout.
Consider `O=C1N[C@@H]2C[C@@H](S(=O)(=O)NCCC3CCN(Cc4ccccc4)CC3)[C@@H]2c2c(Br)cccc21`, for which the IC50 in [2] turned out to be 0.24 µM; in series [3], 0.28 µM. Further, the Papp at 18 h in series [1] came to 10 ×10⁻⁶ cm/s.
On to `CN1C(=O)C(F)=C[C@@H]2[C@H]1C[C@H]2S(=O)(=O)F`, for which 18.8 µM corresponded to half-maximal inhibition in series [2] (IC50).
Take `CN1C(C(=O)Nc2ccccn2)=C(O)c2ccccc2S1(=O)=O` [PIROXICAM]: the Papp at 18 h in series [1] worked out at 9.9 ×10⁻⁶ cm/s.
Take `CN1C(=O)C(F)=C[C@@H]2[C@H]1C[C@H]2S(=O)(=O)CC1CCN(Cc2ccccc2F)CC1`: the IC50 in series [2] is 5.38 µM; in series [3], 5.06 µM.
Regarding `C[C@]12CC[C@H]3[C@@H](CCC4=CC(=O)CC[C@@]43C)[C@@H]1CC[C@@H]2O` [TESTOSTERONE], in series [1], the Papp at 18 h stood at 1.8 ×10⁻⁶ cm/s.
In the case of `CC1=C[C@@H]2[C@@H](C[C@@]2(Br)S(=O)(=O)F)N(C)C1=O`, in series [9], the midpoint of inhibition, the IC50, lay at 10.7 µM.
`CN1C(=O)C(F)=C[C@@H]2[C@H]1C[C@H]2S(=O)(=O)N1CCC(Cc2ccc(F)cc2)CC1`: the IC50 in series [2] amounted to 7.87 µM; in series [3], 8.35 µM.
Turning to `CN1C(=O)C(F)=C[C@@H]2[C@H]1C[C@H]2S(=O)(=O)N1CCOCC1`, the half-inhibitory concentration (IC50) is 1.3 µM in [2] and 1.8 µM in series [3].
